Values quoted from earlier work, collected in patent publication US20200319191A1, “MOLECULAR PROFILING FOR CANCER” (Caris MPI, Inc., priority 2015, published 2020).
Read-outs that look alike come from different tables or passages of the source. Blank lines part the entries; values can stand above or below the compound they belong to.

How the values were obtained:
ribonucleotide reductase = biological target: T1, ribonucleotide reductase (Homo sapiens, UniProt P23921)
T1 sequence (P23921 1-792): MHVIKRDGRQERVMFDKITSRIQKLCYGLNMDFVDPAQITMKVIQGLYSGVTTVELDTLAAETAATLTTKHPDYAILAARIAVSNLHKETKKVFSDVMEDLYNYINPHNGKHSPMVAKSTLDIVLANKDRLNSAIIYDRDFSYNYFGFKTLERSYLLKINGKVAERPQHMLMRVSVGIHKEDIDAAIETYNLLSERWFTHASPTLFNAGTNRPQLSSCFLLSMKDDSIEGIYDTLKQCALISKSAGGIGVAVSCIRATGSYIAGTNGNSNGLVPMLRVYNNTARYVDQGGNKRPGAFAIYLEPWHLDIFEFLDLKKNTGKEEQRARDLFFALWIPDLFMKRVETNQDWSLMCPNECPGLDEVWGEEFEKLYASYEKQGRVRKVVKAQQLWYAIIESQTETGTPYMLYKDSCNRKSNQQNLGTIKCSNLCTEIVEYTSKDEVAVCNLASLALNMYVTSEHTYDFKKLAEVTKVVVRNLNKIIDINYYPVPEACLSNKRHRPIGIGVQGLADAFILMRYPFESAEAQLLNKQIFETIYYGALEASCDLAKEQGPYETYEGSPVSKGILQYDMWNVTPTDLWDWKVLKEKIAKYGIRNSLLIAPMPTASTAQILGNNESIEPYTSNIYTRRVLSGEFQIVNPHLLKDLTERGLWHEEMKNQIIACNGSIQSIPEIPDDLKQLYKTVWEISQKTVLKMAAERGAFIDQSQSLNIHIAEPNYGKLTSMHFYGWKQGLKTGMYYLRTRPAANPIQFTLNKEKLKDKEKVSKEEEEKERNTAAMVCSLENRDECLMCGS

[1] = for sensitivity by EGFRvIII expression: preliminary studies
c-Kit = c-Kit (Homo sapiens, UniProt P10721)
[2] = test system: platelet-derived growth factor receptor (PDGFR)
[3] = Hormonal Agents, ER Positive (IHC)=T

Sequence of c-Kit (P10721 26-976): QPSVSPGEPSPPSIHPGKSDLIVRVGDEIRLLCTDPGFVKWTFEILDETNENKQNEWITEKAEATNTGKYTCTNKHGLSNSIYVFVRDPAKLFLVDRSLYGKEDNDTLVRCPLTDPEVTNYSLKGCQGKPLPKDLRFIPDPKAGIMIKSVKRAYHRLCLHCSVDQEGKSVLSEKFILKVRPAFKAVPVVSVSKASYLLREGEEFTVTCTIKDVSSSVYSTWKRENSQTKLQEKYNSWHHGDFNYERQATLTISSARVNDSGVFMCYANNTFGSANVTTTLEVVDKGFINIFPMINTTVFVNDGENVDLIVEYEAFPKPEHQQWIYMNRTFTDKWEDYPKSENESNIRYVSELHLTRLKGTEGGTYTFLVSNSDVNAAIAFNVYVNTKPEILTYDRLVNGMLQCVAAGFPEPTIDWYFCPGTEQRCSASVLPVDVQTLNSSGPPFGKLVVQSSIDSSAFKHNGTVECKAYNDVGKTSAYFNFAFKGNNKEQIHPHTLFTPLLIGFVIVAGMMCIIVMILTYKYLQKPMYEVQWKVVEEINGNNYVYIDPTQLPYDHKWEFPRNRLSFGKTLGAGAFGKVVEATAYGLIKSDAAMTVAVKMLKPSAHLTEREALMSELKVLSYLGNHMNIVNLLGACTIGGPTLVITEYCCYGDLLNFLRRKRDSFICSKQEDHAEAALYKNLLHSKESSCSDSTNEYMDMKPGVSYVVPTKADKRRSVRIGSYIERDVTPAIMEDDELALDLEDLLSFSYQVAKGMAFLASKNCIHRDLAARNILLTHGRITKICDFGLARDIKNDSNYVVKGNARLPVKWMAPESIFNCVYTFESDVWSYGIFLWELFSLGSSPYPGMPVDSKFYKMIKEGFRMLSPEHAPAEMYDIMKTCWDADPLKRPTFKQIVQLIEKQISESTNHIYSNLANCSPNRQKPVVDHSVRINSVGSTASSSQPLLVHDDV

SMILES: Nc1ccn([C@@H]2O[C@H](CO)[C@@H](O)C2(F)F)c(=O)n1 [Gemcitabine]
effect on ribonucleotide reductase activity (ribonucleotide reductase): synthesis. Gemcitabine is a deoxycitidine analogue which inhibits ribonucleotide reductase

SMILES: COc1cc2ncnc(Nc3ccc(F)c(Cl)c3)c2cc1OCCCN1CCOCC1 [gefitinib]
sensitivity by EGFRvIII expression [1]: higher sensitivity to erlotinib and gefitinib, as well as to pan-Her inhibitors including

SMILES: CCOc1cc2ncc(C#N)c(Nc3ccc(OCc4ccccn4)c(Cl)c3)c2cc1NC(=O)/C=C/CN(C)C [neratinib]
sensitivity by EGFRvIII expression [1]: higher sensitivity to erlotinib and gefitinib, as well as to pan-Her inhibitors including

The next lines start with results.

PGP Positive (IHC) Bene. Level ([1]; IHC positive: TLE3 F, TUBB3 F, PGP F): 1 | PGP Positive (IHC) Bene. Level ([1]; IHC positive: TLE3 F, TUBB3 F, PGP T): 2 | PGP Positive (IHC) Bene. Level ([1]; IHC positive: TLE3 F, TUBB3 No Data, PGP F): 1 | PGP Positive (IHC) Bene. Level ([1]; IHC positive: TLE3 F, TUBB3 No Data, PGP T): 3 | PGP Positive (IHC) Bene. Level ([1]; IHC positive: TLE3 F, TUBB3 T, PGP F): 1 | PGP Positive (IHC) Bene. Level ([1]; IHC positive: TLE3 F, TUBB3 T, PGP T): 3 | PGP Positive (IHC) Bene. Level ([1]; IHC positive: TLE3 No Data, TUBB3 F, PGP F): 1 | PGP Positive (IHC) Bene. Level ([1]; IHC positive: TLE3 No Data, TUBB3 F, PGP T): 2 | PGP Positive (IHC) Bene. Level ([1]; IHC positive: TLE3 No Data, TUBB3 No Data, PGP F): 1 | PGP Positive (IHC) Bene. Level ([1]; IHC positive: TLE3 No Data, TUBB3 No Data, PGP T): 3 | PGP Positive (IHC) Bene. Level ([1]; IHC positive: TLE3 No Data, TUBB3 T, PGP F): 1 | PGP Positive (IHC) Bene. Level ([1]; IHC positive: TLE3 No Data, TUBB3 T, PGP T): 3 | PGP Positive (IHC) Bene. Level ([1]; IHC positive: TLE3 T, TUBB3 F, PGP F): 1 | PGP Positive (IHC) Bene. Level ([1]; IHC positive: TLE3 T, TUBB3 F, PGP T): 2 | PGP Positive (IHC) Bene. Level ([1]; IHC positive: TLE3 T, TUBB3 No Data, PGP F): 1 | PGP Positive (IHC) Bene. Level ([1]; IHC positive: TLE3 T, TUBB3 No Data, PGP T): 2 | PGP Positive (IHC) Bene. Level ([1]; IHC positive: TLE3 T, TUBB3 T, PGP F): 1 | PGP Positive (IHC) Bene. Level ([1]; IHC positive: TLE3 T, TUBB3 T, PGP T): 2 | PGP Positive (IHC) Evid. Level ([1]; taxanes rule, Ref. No. 28): 3
SMILES: CC(=O)O[C@H]1C(=O)[C@@]2(C)[C@H]([C@H](OC(=O)c3ccccc3)[C@]3(O)C[C@H](OC(=O)[C@H](O)[C@@H](NC(=O)c4ccccc4)c4ccccc4)C(C)=C1C3(C)C)[C@]1(OC(C)=O)CO[C@@H]1C[C@@H]2O [paclitaxel]

kinase activity (c-Kit): block the activity
SMILES: Cc1ccc(NC(=O)c2ccc(CN3CCN(C)CC3)cc2)cc1Nc1nccc(-c2cccnc2)n1 [Imatinib, imatinib]
kinase activity [2]: block the activity

Evid. Level, ER Positive (IHC) ([1]; Hormonal Agents, ER Positive (IHC)=F): 1 | Bene. Level, ER Positive (IHC) [1, 3]: 1 | Evid. Level, ER Positive (IHC) [1, 3]: 1
SMILES: N#Cc1ccc(C(c2ccc(C#N)cc2)n2cncn2)cc1 [letrozole]
